14 compounds from patent publication US12433953B2, “Compositions and methods related to tumor activated antibodies targeting EGFR and effector cell antigens” (Janux Therapeutics, Inc., priority 2021, dated 2025) can be followed below.

For orientation: EC50 means the concentration at which the effect is half-maximal. As a reminder, the IC50 is the concentration needed to halve the response being measured.

The target of one experiment is EGFR IgG. As to the kind of experiment: ELISA binding of peptides to EGFR IgG. The settings on record: Table 12; antibody concentration for half maximal signal; read-out: EC50 for peptide binding to EGFR IgG. For orientation: An ELISA detects its analyte on a solid surface through an enzyme-linked reagent.
Experiment [1] has as its target EGFR IgG binding to the EGFR antigen. The experiment is described as follows: ELISA competitive inhibition of EGFR IgG binding to EGFR antigen. The settings on record: for IC50: read-out: IC50 for peptide inhibition of EGFR IgG binding to EGFR antigen, Table 13.
The next experiment concerns the target EGFR Fab. The experiment is described as follows: ELISA binding of peptides to EGFR Fab. The settings on record: read-out: EC50 for peptide binding to αEGFR Fab.
For experiment [2], the target named is EGFR Fab binding to the EGFR antigen. As to the kind of experiment: ELISA competitive inhibition of EGFR Fab binding to EGFR antigen. The settings on record: for IC50: read-out: IC50 for peptide inhibition of αEGFR Fab binding to EGFR antigen; for potency as peptide mask (in words): binding and inhibition data relative to peptide-8.
[3] abbreviates: Table 27, peptide-8 optimization.
Where [4] appears, read: Table 25, peptide-8 optimization.

Molecules are shown by their SMILES. Where two headings read alike, the source gives them in different places. A value given as a limit tells only on which side of the number the result lay.

Turning to `CC[C@H](C)[C@@H]1NC(=O)[C@H](CC(C)C)NC(=O)[C@H](Cc2c[nH]cn2)NC(=O)[C@H](C)NC(=O)[C@H](CC(=O)O)NC(=O)[C@H](C)NC(=O)[C@@H](NC(=O)[C@H](CO)NC(=O)[C@@H](N)[C@@H](C)O)CSSC[C@@H](C(=O)N[C@@H](CO)C(=O)O)NC(=O)[C@H](CO)NC(=O)[C@@H]2CCCN2C(=O)[C@H](C)NC1=O` [Peptide-2], the EC50 at EGFR IgG is 84 nM. The IC50 in experiment [1] is above 300 nM.

Regarding `CSCC[C@@H]1NC(=O)[C@H](CC(C)C)NC(=O)[C@H](CO)NC(=O)[C@H](CCCNC(=N)N)NC(=O)[C@@H](NC(=O)[C@H](Cc2c[nH]c3ccccc23)NC(=O)[C@@H](N)CC(=O)O)CSSC[C@@H](C(=O)N2CCC[C@H]2C(=O)O)NC(=O)[C@H](CC(C)C)NC(=O)[C@H](CC(=O)O)NC(=O)[C@H]([C@@H](C)O)NC(=O)[C@H](Cc2ccc(O)cc2)NC(=O)[C@H](CO)NC1=O` [Peptide-1], on EGFR IgG, the EC50 stood at 52 nM. Further, the 50% inhibitory concentration (IC50) in experiment [1] is above 300 nM.

On to `CC(C)[C@@H]1NC(=O)[C@H](Cc2c[nH]c3ccccc23)NC(=O)[C@H]([C@@H](C)O)NC(=O)[C@H](CC(N)=O)NC(=O)[C@H](CC(=O)O)NC(=O)[C@H](CCC(N)=O)NC(=O)CNC(=O)[C@@H](NC(=O)[C@@H](N)Cc2ccc(O)cc2)CSSC[C@@H](C(=O)N[C@@H](Cc2ccccc2)C(=O)O)NC(=O)CNC(=O)[C@H](CCC(=O)O)NC(=O)[C@H](CCCNC(=N)N)NC1=O` [Peptide-6], for which the EC50 is 0.3 nM on EGFR IgG and 458 nM at EGFR Fab (Table 16). Besides, the “inhibiting EGFR IgG binding to the EGFR antigen (in words)” value in experiment [1] (among peptide-1 to peptide-6) is “most effective at inhibiting EGFR IgG binding to the EGFR antigen”.

Regarding `CSCC[C@@H]1NC(=O)[C@H](C(C)C)NC(=O)[C@H](Cc2c[nH]c3ccccc23)NC(=O)[C@H](Cc2c[nH]cn2)NC(=O)[C@H](C)NC(=O)[C@@H](NC(=O)CNC(=O)CN)CSSC[C@@H](C(=O)N[C@@H](CCC(N)=O)C(=O)O)NC(=O)[C@H](Cc2c[nH]c3ccccc23)NC(=O)[C@H](CO)NC(=O)[C@H](CC(C)C)NC(=O)[C@H](CCCNC(=N)N)NC1=O` [Peptide-10], the IC50 in experiment [2] (Table 17) was above 300 nM. Also, the EC50 on EGFR Fab (Table 15) was above 1000 nM.

Turning to `CC[C@H](C)[C@@H]1NC(=O)[C@@H]2CCCN2C(=O)[C@H](CCCCN)NC(=O)[C@H](C)NC(=O)[C@@H]2CCCN2C(=O)[C@H](CC(=O)O)NC(=O)[C@H](Cc2ccccc2)NC(=O)[C@H](Cc2c[nH]cn2)NC(=O)[C@H](Cc2ccccc2)NC(=O)[C@H](CC(C)C)NC(=O)[C@@H](NC(=O)[C@@H]2CCCN2)CSSC[C@@H](C(=O)N[C@@H](CO)C(=O)O)NC1=O` [Peptide-46, PCLFHFDPAKPICS], the “potency as peptide mask (in words)” value in experiment [2] was “more potent peptide masks”. Besides, the IC50 in experiment [2] (setting [3]) came to 300 nM. The EC50 at EGFR Fab (setting [4]) turned out to be 4.9 nM.

Take `CC[C@H](C)[C@@H]1NC(=O)[C@H](CC(C)C)NC(=O)[C@H](C)NC(=O)[C@@H]2CCCN2C(=O)[C@@H](NC(=O)[C@@H]2CCCN2)CSSC[C@@H](C(=O)N[C@H](C(=O)O)C(C)C)NC(=O)[C@H]([C@@H](C)CC)NC(=O)[C@H](C(C)C)NC(=O)[C@H](CCC(=O)O)NC(=O)[C@H](C)NC(=O)[C@H](C(C)C)NC(=O)[C@H](CC(=O)O)NC1=O` [Peptide-14]: in experiment [2] (Table 18), the IC50 is above 300 nM. At EGFR Fab (Table 16), the EC50 was above 1000 nM.

For `CC(C)[C@@H]1NC(=O)[C@H](CCCNC(=N)N)NC(=O)[C@H](CC(=O)O)NC(=O)[C@H](Cc2c[nH]c3ccccc23)NC(=O)[C@H](CCC(N)=O)NC(=O)[C@@H](NC(=O)[C@@H](N)CC(N)=O)CSSC[C@@H](C(=O)N[C@@H](CO)C(=O)O)NC(=O)[C@H](C)NC(=O)[C@H](Cc2ccc(O)cc2)NC(=O)[C@H]([C@@H](C)O)NC(=O)[C@H](Cc2c[nH]cn2)NC(=O)[C@H](CCC(=O)O)NC1=O` [Peptide-3], the EC50 on EGFR IgG was determined as 413 nM. For the same compound, the concentration for half-maximal inhibition (IC50) in experiment [1] is above 300 nM.

In the case of `CSCC[C@@H]1NC(=O)[C@H](Cc2c[nH]cn2)NC(=O)[C@H](CO)NC(=O)[C@@H](NC(=O)[C@@H](N)CCC(=O)O)CSSC[C@@H](C(=O)N[C@@H](CO)C(=O)O)NC(=O)[C@H](CC(C)C)NC(=O)[C@@H]2CCCN2C(=O)[C@H](Cc2c[nH]c3ccccc23)NC(=O)[C@H](CCCNC(=N)N)NC(=O)[C@H]([C@@H](C)O)NC(=O)CNC(=O)[C@H](CCC(=O)O)NC1=O` [Peptide-16], the IC50 in experiment [2] (Table 18) is above 300 nM. Further, on EGFR Fab (Table 16), the EC50 worked out at 34 nM.

`CSCC[C@@H]1NC(=O)[C@H](Cc2c[nH]c3ccccc23)NC(=O)[C@H](Cc2ccc(O)cc2)NC(=O)[C@H](Cc2c[nH]cn2)NC(=O)[C@H](C(C)C)NC(=O)[C@@H](NC(=O)[C@@H](NC(=O)[C@@H](N)CO)[C@@H](C)O)CSSC[C@@H](C(=O)N[C@H](C(=O)O)C(C)C)NC(=O)[C@H](CO)NC(=O)[C@H](CCCNC(=N)N)NC(=O)[C@H](CC(C)C)NC(=O)[C@H](CCC(N)=O)NC1=O` [Peptide-9]: the IC50 in experiment [2] (Table 17) was above 300 nM. Moreover, at EGFR Fab (Table 15), the EC50 was above 1000 nM.

For `CSCC[C@H](N)C(=O)N[C@@H](CC(N)=O)C(=O)N[C@H]1CSSC[C@@H](C(=O)N[C@@H](CC(C)C)C(=O)N[C@H](C(=O)O)C(C)C)NC(=O)[C@H](Cc2ccc(O)cc2)NC(=O)[C@H](CCC(=O)O)NC(=O)[C@H](C(C)C)NC(=O)[C@H](Cc2c[nH]c3ccccc23)NC(=O)[C@H](CC(C)C)NC(=O)[C@H](CCCNC(=N)N)NC(=O)[C@H](CC(N)=O)NC(=O)[C@H](CC(C)C)NC1=O` [Peptide-5], the EC50 at EGFR IgG was 2 nM. In experiment [1], the IC50 is above 300 nM.

For the compound `CSCC[C@@H]1NC(=O)[C@H](C(C)C)NC(=O)[C@H]([C@@H](C)O)NC(=O)[C@@H](NC(=O)[C@H](C)N)CSSC[C@@H](C(=O)N[C@H](C(=O)O)C(C)C)NC(=O)[C@H](CCCNC(=N)N)NC(=O)[C@H](C(C)C)NC(=O)[C@H](CCC(=O)O)NC(=O)[C@H](CCC(N)=O)NC(=O)[C@H](CCCNC(=N)N)NC(=O)[C@H](C)NC(=O)CNC1=O` [Peptide-13], the IC50 in experiment [2] (Table 18) was above 300 nM. Further, on EGFR Fab (Table 16), the EC50 was above 1000 nM.

Turning to `CSCC[C@@H]1NC(=O)[C@H](Cc2c[nH]cn2)NC(=O)[C@H](CO)NC(=O)CNC(=O)[C@H](CC(=O)O)NC(=O)[C@H](Cc2c[nH]cn2)NC(=O)[C@@H](NC(=O)[C@H](CO)NC(=O)[C@@H](NC(=O)[C@@H](N)Cc2c[nH]c3ccccc23)C(C)C)CSSC[C@@H](C(=O)N[C@@H](Cc2ccccc2)C(=O)N[C@@H](Cc2c[nH]cn2)C(=O)O)NC(=O)[C@H]([C@@H](C)O)NC1=O` [Peptide-4], the IC50 in experiment [1] was above 300 nM.

For `CSCC[C@@H]1NC(=O)[C@H](CC(C)C)NC(=O)[C@H](Cc2ccccc2)NC(=O)[C@H](Cc2c[nH]cn2)NC(=O)[C@H](CCC(N)=O)NC(=O)[C@@H](NC(=O)CNC(=O)[C@@H](N)CC(C)C)CSSC[C@@H](C(=O)NCC(=O)O)NC(=O)[C@H]([C@@H](C)O)NC(=O)[C@H](C)NC(=O)[C@H](CC(C)C)NC(=O)[C@H](CCCCN)NC1=O` [Peptide-11], in experiment [2] (Table 17), the IC50 was above 300 nM. Further, the EC50 at EGFR Fab (Table 15) is 42 nM.

For the compound `CC[C@H](C)[C@@H]1NC(=O)[C@@H]2CCCN2C(=O)[C@H](CCCCN)NC(=O)[C@H](C)NC(=O)[C@@H]2CCCN2C(=O)[C@H](CC(=O)O)NC(=O)[C@H](CC(N)=O)NC(=O)[C@H](Cc2c[nH]cn2)NC(=O)[C@H](Cc2ccc(O)cc2)NC(=O)[C@H](C)NC(=O)[C@@H](NC(=O)[C@@H]2CCCN2)CSSC[C@@H](C(=O)N[C@@H](CO)C(=O)O)NC1=O` [Peptide-45, PCAYHNDPAKPICS], the “potency as peptide mask (in words)” value in experiment [2] is “more potent peptide masks”. For the same compound, the IC50 in experiment [2] (setting [3]) came out at 543 nM. On EGFR Fab (setting [4]), the EC50 was 10.3 nM.
